The values below come from US6967215B2, “Tetrahydrocarbazoles, a process for the preparation of those compounds, and the use thereof” (Ciba Specialty Chemicals Corporation, priority 2000, dated 2005).

Common to all, as to test: MIC, microtitre dilution test (growth by optical density at 620 nm)
Type in all cases: cell-based

In assay [1] the test system is Staphylococcus epidermidis ATCC 12228. The following applies: Table 3. The procedure:
(§1) Casein/soybean flour peptone bouillon for the preparation of pre-cultures of the test bacteria and yeast.
(§2) The test substances are predissolved in dimethyl sulfoxide (DMSO) and tested in a dilution series of 1:2.
(§3) Bacteria and yeast are cultured overnight in CASO bouillon, the mould is cultured overnight on mycological slant agar, and washed off with 10 ml of 0.85% sodium chloride solution (+0.1% TritonX-100).
(§4) All the test organisms are adjusted to an organism count of 1-5×10^6 CFU/ml using 0.85% sodium chloride solution.
(§5) The test substances are pre-pipetted into microtitre plates in an amount of 8 μl per well.
(§6) Pre-diluted organism suspensions are diluted 1:100 in CASO bouillon (bacteria and yeast) or Sabouraud 2% glucose bouillon (mould) and are added in an amount of 192 μl per well to the test substances.
(§7) The test batches are incubated for 48 hours at 37° C. (bacteria and yeast) or for 5 days at 28° C. (mould).
(§8) After incubation, the growth is evaluated by reference to the turbidity of the test batches (optical density) at 620 nm in a microplate reader.
(§9) The minimum inhibitory concentration (MIC value) is the concentration of substance at which (compared with the growth of the control) an appreciable inhibition of growth (≦20% growth) of the test organisms is ascertained.
(§10) One microtitre plate is used for each test organism and substance concentration. All the substances are tested in duplicate.

In assay [2] the test system is Micrococcus luteus ATCC 9341. The following applies: Table 3. The procedure:
as §1, §2, §3, §4, §5, §6, §7, §8, §9, §10

In assay [3] the test system is Candida albicans ATCC 10259. The following applies: Table 3. The procedure: as §1, §2, §3, §4, §5, §6, §7, §8, §9, §10
Assay [4] concerns Staphylococcus hominis DMS 20328. The following applies: for MIC Staphylococcus hominis DSM 20328: Table 3; for MIC [ppm] S. hominis: Table 5. As to the method:
as §1, §2, §3, §4, §5, §6, §7, §8, §9, §10

Assay [5] has as its system Enterococcus hirae ATCC 10541. The following applies: Table 3. As to the method: as §1, §2, §3, §4, §5, §6, §7, §8, §9, §10
The subject of assay [6] is Corynebacterium xerosis ATCC 373. The following applies: Table 3. The procedure: as §1, §2, §3, §4, §5, §6, §7, §8, §9, §10
Assay [7] relates to Aspergillus niger ATCC 6175. The following applies: Table 5. The procedure: (§11) Nutrient: Mycological slant agar for the pre-culture of moulds [table] The test substances are predissolved in dimethyl sulfoxide (DMSO) and tested in a dilution series of 1:2. Bacteria and yeast are cultured overnight in CASO bouillon, the mould is cultured overnight on mycological slant agar, and washed off with 10 ml of 0.85% sodium chloride solution (+0.1% TritonX-100). All the test organisms are adjusted to an organism count of 1-5×10^6 CFU/ml using 0.85% sodium chloride solution. The test substances are pre-pipetted into microtitre plates in an amount of 8 μl per well. Pre-diluted organism suspensions are diluted 1:100 in CASO bouillon (bacteria and yeast) or Sabouraud 2% glucose bouillon (mould) and are added in an amount of 192 μl per well to the test substances. The test batches are incubated for 48 hours at 37° C. (bacteria and yeast) or for 5 days at 28° C. (mould). After incubation, the growth is evaluated by reference to the turbidity of the test batches (optical density) at 620 nm in a microplate reader. The minimum inhibitory concentration (MIC value) is the concentration of substance at which (compared with the growth of the control) an appreciable inhibition of growth (≦20% growth) of the test organisms is ascertained. One microtitre plate is used for each test organism and substance concentration. All the substances are tested in duplicate.

The test system of assay [8] is Escherichia coli NCTC 8196. The following applies: Table 5. The procedure:
as §1, §2, §3, §4, §5, §6, §7, §8, §9, §10

For assay [9], the system named is P. aeruginosa. The following applies: Table 5. The procedure:
as §11, with “All” for “Nutrient: Mycological slant agar for the pre-culture of moulds [table] The test substances are predissolved in dimethyl sulfoxide (DMSO) and tested in a dilution series of 1:2. Bacteria and yeast are cultured overnight in CASO bouillon, the mould is cultured overnight on mycological slant agar, and washed off with 10 ml of 0.85% sodium chloride solution (+0.1% TritonX-100). All”

Structures are written as SMILES. Where only a bound is given, the exact number is not on record here.

Turning to `CCc1cccc2c3c([nH]c12)C1C(=O)NC(=O)C1C1CCCCCCC31` (stereo not drawn) [compound 89], the “MIC Staphylococcus epidermidis ATCC 12228” value in assay [1] is “≦3.75 ppm”. In addition, the “MIC Micrococcus luteus ATCC 9341” value in [2] is listed as “≦3.75 ppm”. In addition, the “MIC Candida albicans ATCC 10259” value in assay [3] is on record as more than 120 ppm. Further, the “MIC Staphylococcus hominis DSM 20328” value in [4] was 7.5 ppm. For the same compound, the “MIC Enterococcus hirae ATCC 10541” value in [5] is on record as more than 120 ppm. Further, the “MIC Corynebacterium xerosis ATCC 373” value in assay [6] was “≦3.75 ppm”.
With `CC(C)NCC(O)COc1cccc2[nH]c3c(c12)C1CCCCCC1C1C(=O)NC(=O)C31` (stereo not drawn) [Compound 189], in [7], the “MIC [ppm] A. niger” value is more than 120 ppm. Further, in assay [8], the “MIC [ppm] E. coil” value came out at 120 ppm. In [4], the “MIC [ppm] S. hominis” value was determined as 15 ppm. In addition, the “MIC [ppm] P. aeruginosa” value in [9] is more than 120 ppm.
For `CCCN1CCC2c3c([nH]c4c(C)cccc34)C3C(=O)NC(=O)C3C2C1` (stereo not drawn) [Compound 222], in [7], the “MIC [ppm] A. niger” value is more than 120 ppm. For the same compound, the “MIC [ppm] E. coil” value in [8] worked out at 120 ppm. Also, in [4], the “MIC [ppm] S. hominis” value stood at 120 ppm. In addition, the “MIC [ppm] P. aeruginosa” value in [9] is on record as more than 120 ppm.
Consider `CCCN1CCC2c3c([nH]c4cccc(C(=O)OC)c34)C3C(=O)NC(=O)C3C2C1` (stereo not drawn) [Compound 201], for which the “MIC [ppm] A. niger” value in assay [7] is reported as more than 120 ppm. Besides, the “MIC [ppm] E. coil” value in assay [8] is reported as more than 120 ppm. Moreover, the “MIC [ppm] S. hominis” value in assay [4] is more than 120 ppm. In addition, in assay [9], the “MIC [ppm] P. aeruginosa” value turned out to be 60 ppm.
Take `CCCN1CCC2c3c([nH]c4cc(F)c(F)cc34)C3C(=O)NC(=O)C3C2C1` (stereo not drawn) [Compound 219]: the “MIC [ppm] A. niger” value in [7] was more than 120 ppm. For the same compound, in assay [8], the “MIC [ppm] E. coil” value is more than 120 ppm. In addition, the “MIC [ppm] S. hominis” value in assay [4] was more than 120 ppm. Also, the “MIC [ppm] P. aeruginosa” value in [9] is more than 120 ppm.
For the compound `CCCN1CCC2c3c([nH]c4cc(C)ccc34)C3C(=O)NC(=O)C3C2C1` (stereo not drawn) [Compound 203], the “MIC [ppm] A. niger” value in assay [7] was more than 120 ppm. Moreover, the “MIC [ppm] E. coil” value in [8] is reported as more than 120 ppm. The “MIC [ppm] S. hominis” value in assay [4] was more than 120 ppm. For the same compound, the “MIC [ppm] P. aeruginosa” value in assay [9] is recorded as more than 120 ppm.
Consider `CCCN1CCC2c3c([nH]c4cc(Cl)ccc34)C3C(=O)NC(=O)C3C2C1` (stereo not drawn) [Compound 199], for which the “MIC [ppm] A. niger” value in assay [7] is on record as more than 120 ppm. Besides, the “MIC [ppm] E. coil” value in [8] is given as more than 120 ppm. The “MIC [ppm] S. hominis” value in assay [4] was 120 ppm. Further, the “MIC [ppm] P. aeruginosa” value in [9] is on record as more than 120 ppm.
Take `CCCN1CCC2c3c([nH]c4cc(OC)ccc34)C3C(=O)NC(=O)C3C2C1` (stereo not drawn) [Compound 231]: the “MIC [ppm] A. niger” value in assay [7] is listed as more than 120 ppm. Moreover, the “MIC [ppm] E. coil” value in [8] was more than 120 ppm. In addition, in assay [4], the “MIC [ppm] S. hominis” value worked out at 120 ppm. Further, in [9], the “MIC [ppm] P. aeruginosa” value is 120 ppm.
As to `CCCN1CCC2c3c([nH]c4c(F)cccc34)C3C(=O)NC(=O)C3C2C1` (stereo not drawn) [Compound 211], the “MIC [ppm] A. niger” value in assay [7] was more than 120 ppm. In addition, the “MIC [ppm] E. coil” value in [8] amounted to 120 ppm. Moreover, the “MIC [ppm] S. hominis” value in [4] is reported as more than 120 ppm. The “MIC [ppm] P. aeruginosa” value in assay [9] turned out to be 120 ppm.
With `O=C1NC(=O)C2C1c1[nH]c3ccccc3c1C1CC3CCCCC3CC12` (stereo not drawn) [Compound 183], in assay [7], the “MIC [ppm] A. niger” value is on record as more than 120 ppm. The “MIC [ppm] E. coil” value in assay [8] was more than 120 ppm. Besides, the “MIC [ppm] S. hominis” value in assay [4] is listed as 15 ppm. The “MIC [ppm] P. aeruginosa” value in assay [9] was more than 120 ppm.
Regarding `CCCN1CCC2c3c([nH]c4cc(C(F)(F)F)ccc34)C3C(=O)NC(=O)C3C2C1` (stereo not drawn) [Compound 215], in assay [7], the “MIC [ppm] A. niger” value was more than 120 ppm. Moreover, in [8], the “MIC [ppm] E. coil” value amounted to 60 ppm. Also, the “MIC [ppm] S. hominis” value in assay [4] turned out to be 30 ppm. Further, in assay [9], the “MIC [ppm] P. aeruginosa” value is on record as 120 ppm.
As for `CCCN1CCC2c3c([nH]c4c(OC)cccc34)C3C(=O)NC(=O)C3C2C1` (stereo not drawn) [Compound 229], the “MIC [ppm] A. niger” value in assay [7] is listed as more than 120 ppm. In addition, the “MIC [ppm] E. coil” value in assay [8] is on record as more than 120 ppm. Besides, in assay [4], the “MIC [ppm] S. hominis” value is more than 120 ppm. In assay [9], the “MIC [ppm] P. aeruginosa” value is on record as more than 120 ppm.
As for `CCCN1CCC2c3c([nH]c4cc(OC)c(OC)cc34)C3C(=O)NC(=O)C3C2C1` (stereo not drawn) [Compound 238], in [7], the “MIC [ppm] A. niger” value was more than 120 ppm. Further, the “MIC [ppm] E. coil” value in assay [8] was more than 120 ppm. Also, in [4], the “MIC [ppm] S. hominis” value is recorded as more than 120 ppm. In addition, the “MIC [ppm] P. aeruginosa” value in [9] is recorded as more than 120 ppm.
Take `COc1cccc2[nH]c3c(c12)C1CCCCCC1C1C(=O)NC(=O)C31` (stereo not drawn) [Compound 187]: the “MIC [ppm] A. niger” value in assay [7] is listed as more than 120 ppm. In addition, the “MIC [ppm] E. coil” value in assay [8] is reported as more than 120 ppm. Besides, in [4], the “MIC [ppm] S. hominis” value is 30 ppm. Also, in assay [9], the “MIC [ppm] P. aeruginosa” value is given as 60 ppm.
As for `CCCN1CCC2c3c([nH]c4cccc(Cl)c34)C3C(=O)NC(=O)C3C2C1` (stereo not drawn) [Compound 224], the “MIC [ppm] A. niger” value in assay [7] is listed as more than 120 ppm. For the same compound, the “MIC [ppm] E. coil” value in assay [8] was more than 120 ppm. In addition, in assay [4], the “MIC [ppm] S. hominis” value is reported as more than 120 ppm. Moreover, the “MIC [ppm] P. aeruginosa” value in assay [9] is recorded as 120 ppm.
As for `CC1(C)CC2c3c([nH]c4ccccc34)C3C(=O)NC(=O)C3C2C(C)(C)C1` (stereo not drawn) [compound 63], in [1], the “MIC Staphylococcus epidermidis ATCC 12228” value is “≦3.75 ppm”. Also, the “MIC Micrococcus luteus ATCC 9341” value in assay [2] is listed as “≦3.75 ppm”. Also, in [3], the “MIC Candida albicans ATCC 10259” value is reported as more than 120 ppm. Further, the “MIC Staphylococcus hominis DSM 20328” value in assay [4] was determined as 7.5 ppm. Further, in assay [5], the “MIC Enterococcus hirae ATCC 10541” value turned out to be 7.5 ppm. In [6], the “MIC Corynebacterium xerosis ATCC 373” value is listed as “≦3.75 ppm”.
As to `COc1cccc2[nH]c3c(c12)C1CCCCCCCCCCC1C1C(=O)NC(=O)C31` (stereo not drawn) [Compound 188], the “MIC [ppm] A. niger” value in assay [7] was more than 120 ppm. In assay [8], the “MIC [ppm] E. coil” value is listed as more than 120 ppm. Besides, in [4], the “MIC [ppm] S. hominis” value was 15 ppm. Also, the “MIC [ppm] P. aeruginosa” value in assay [9] was more than 120 ppm.
